Test results published in ChEMBL document CHEMBL3046839, “Six insecticidal isoryanodane diterpenoids from the bark and twigs of Itoa orientalis” (2008).
≈ marks a conversion by molar mass, not a printed value. Calls of active or inactive are those of the source. The calls are words filed in the database; no cut-off is given here.

Key:
BGC-823 = test: Cytotoxicity against Homo sapiens (human) BGC823 cells at 10 uM by MTT assay; assay type: functional, cell-based
KB = test: Cytotoxicity against Homo sapiens (human) KB cells at 10 uM by MTT assay; assay type: functional, cell-based
HL-60 = test: Cytotoxicity against Homo sapiens (human) HL60 cells at 10 uM by MTT assay; assay type: functional, cell-based
Bel-7402 = test: Cytotoxicity against Homo sapiens (human) Bel7402 cells at 10 uM by MTT assay; assay type: functional, cell-based
Helicoverpa armigera = test: Insecticidal activity against Heliothis armigera larvae reared on artificial diet assessed as growth inhibition after 72 hr; assay type: functional, organism-based
Spodoptera exigua [1] = test: Insecticidal activity against Spodoptera exigua larvae reared on artificial diet assessed as mortality rate at 73.63 ppm after 72 hr; assay type: functional
Spodoptera exigua [2] = test: Insecticidal activity against Spodoptera exigua larvae reared on artificial diet assessed as mortality rate at 32 ppm after 72 hr; assay type: functional
Spodoptera exigua [3] = test: Insecticidal activity against Spodoptera exigua larvae reared on artificial diet assessed as mortality rate after 72 hr; assay type: functional; details: for LC50: Spodoptera exigua, 72 h
Spodoptera exigua [4] = test: Insecticidal activity against Spodoptera exigua larvae reared on artificial diet assessed as mortality rate at 42.63 ppm after 72 hr; assay type: functional
Spodoptera exigua [5] = test: Insecticidal activity against Spodoptera exigua larvae reared on artificial diet assessed as mortality rate at 96.88 ppm after 72 hr; assay type: functional
Spodoptera exigua [6] = test: Insecticidal activity against Spodoptera exigua larvae reared on artificial diet assessed as mortality rate at 56.19 ppm after 72 hr; assay type: functional
Spodoptera exigua [7] = test: Insecticidal activity against Spodoptera exigua larvae reared on artificial diet assessed as mortality rate at 31.56 ppm after 72 hr; assay type: functional
Spodoptera exigua [8] = test: Insecticidal activity against Spodoptera exigua larvae reared on artificial diet assessed as mortality rate at 55.64 ppm after 72 hr; assay type: functional
Spodoptera exigua [9] = test: Insecticidal activity against Spodoptera exigua larvae reared on artificial diet assessed as mortality rate at 72.68 ppm after 72 hr; assay type: functional
Spodoptera exigua [10] = test: Insecticidal activity against Spodoptera exigua larvae reared on artificial diet assessed as mortality rate at 42.08 ppm after 72 hr; assay type: functional
Spodoptera exigua [11] = test: Insecticidal activity against Spodoptera exigua larvae reared on artificial diet assessed as mortality rate at 95.65 ppm after 72 hr; assay type: functional

Compound	Activity (BGC-823)	Activity (KB)	Activity (HL-60)	Activity (Bel-7402)	growth inhibition (GI) (Helicoverpa armigera)	mortality at 73.63 ppm (Spodoptera exigua [1]) [%]	mortality at 32 ppm (Spodoptera exigua [2]) [%]	LC90 (Spodoptera exigua [3]) [µg/mL]	LC50 (Spodoptera exigua [3]) [µg/mL]	mortality at 42.63 ppm (Spodoptera exigua [4]) [%]	mortality at 96.88 ppm (Spodoptera exigua [5]) [%]	mortality at 56.19 ppm (Spodoptera exigua [6]) [%]	mortality at 31.56 ppm (Spodoptera exigua [7]) [%]	mortality at 55.64 ppm (Spodoptera exigua [8]) [%]	mortality at 72.68 ppm (Spodoptera exigua [9]) [%]	mortality at 42.08 ppm (Spodoptera exigua [10]) [%]	mortality at 95.65 ppm (Spodoptera exigua [11]) [%]
C[C@@H]1CC[C@@]2(O)[C@@H]1[C@H]1O[C@@]3(O)C[C@]2(C)[C@@H]2[C@@H](O)[C@](O)(C(C)(C)O)[C@@]3(C)[C@]12O	inactive	inactive	inactive	inactive	inactive												
CC(C)[C@@]1(O)[C@H](O[C@@H]2O[C@H](CO)[C@@H](O)[C@H](O)[C@H]2O)[C@@H]2[C@@]3(O)[C@@H]4O[C@@](O)(C[C@@]2(C)[C@@]2(O)CC[C@@H](C)[C@@H]42)[C@]31C	inactive	inactive	inactive	inactive	inactive												
CC(CO[C@@H]1O[C@H](CO)[C@@H](O)[C@H](O)[C@H]1O)[C@@]1(O)[C@H](O)[C@@H]2[C@@]3(O)[C@@H]4O[C@@](O)(C[C@@]2(C)[C@@]2(O)CC[C@@H](C)[C@@H]42)[C@]31C (stereo partly specified)	inactive	inactive	inactive	inactive	inactive												
CC(C)[C@@]1(O)[C@H](O)[C@@H]2[C@@]3(O)[C@@H]4O[C@@](O)(C[C@@]2(C)[C@@]2(O)CC[C@@H](C)[C@@H]42)[C@]31C [ITOL A]	inactive	inactive	inactive	inactive	inactive	94	56	67.68 (≈ 184 µM)	28.6 (≈ 77.7 µM)	73	96	83					
CC(CO)[C@@]1(O)[C@H](O)[C@@H]2[C@@]3(O)[C@@H]4O[C@@](O)(C[C@@]2(C)[C@@]2(O)CC[C@@H](C)[C@@H]42)[C@]31C (stereo partly specified) [ITOL B]					inactive			131.7 (≈ 343 µM)	52.8 (≈ 137 µM)				26	59	69	31	77
CC(C)[C@@]1(O)[C@H](O)[C@@H]2[C@@]3(O)[C@@H]4O[C@@](O)(C[C@@]2(C)[C@@]2(O)CC[C@](C)(O)[C@@H]42)[C@]31C					inactive												
